Reference: the Kinase Knowledgebase extract (Sharma et al. 2016)

Molecular target: PIK3CD (Human) (UniProt O00329)
Assay: Enzyme Assay

PIK3CD (Human), sequence (O00329 whole entry, looked up): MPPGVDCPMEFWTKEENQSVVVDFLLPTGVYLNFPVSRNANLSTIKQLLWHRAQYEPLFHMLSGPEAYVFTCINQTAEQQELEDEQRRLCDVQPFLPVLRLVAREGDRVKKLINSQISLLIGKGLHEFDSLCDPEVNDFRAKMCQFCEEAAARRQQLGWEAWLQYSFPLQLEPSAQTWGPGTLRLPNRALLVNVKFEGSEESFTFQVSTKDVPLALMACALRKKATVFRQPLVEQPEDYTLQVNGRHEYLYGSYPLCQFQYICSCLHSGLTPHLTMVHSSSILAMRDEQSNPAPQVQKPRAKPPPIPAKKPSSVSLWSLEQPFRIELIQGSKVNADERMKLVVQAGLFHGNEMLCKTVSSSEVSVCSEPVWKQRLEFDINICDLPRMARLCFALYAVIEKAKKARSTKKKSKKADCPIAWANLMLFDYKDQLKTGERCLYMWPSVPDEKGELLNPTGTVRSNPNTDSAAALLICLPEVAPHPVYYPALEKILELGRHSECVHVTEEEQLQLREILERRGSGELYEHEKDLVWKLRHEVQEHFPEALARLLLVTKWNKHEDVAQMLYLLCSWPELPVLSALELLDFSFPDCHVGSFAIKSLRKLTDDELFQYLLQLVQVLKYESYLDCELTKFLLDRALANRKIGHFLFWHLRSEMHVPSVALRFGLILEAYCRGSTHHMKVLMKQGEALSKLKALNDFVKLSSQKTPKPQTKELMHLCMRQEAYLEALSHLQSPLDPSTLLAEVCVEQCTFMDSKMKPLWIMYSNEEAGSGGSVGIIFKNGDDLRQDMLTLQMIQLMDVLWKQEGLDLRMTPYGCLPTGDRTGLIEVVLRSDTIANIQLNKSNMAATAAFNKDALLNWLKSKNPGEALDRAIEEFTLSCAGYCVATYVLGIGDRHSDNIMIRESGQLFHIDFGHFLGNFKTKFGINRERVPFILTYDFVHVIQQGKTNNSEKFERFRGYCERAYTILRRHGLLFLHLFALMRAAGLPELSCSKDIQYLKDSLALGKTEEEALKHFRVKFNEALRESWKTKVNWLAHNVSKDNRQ

Row | Compound | Ki [µM]
1 | C[C@@H](Nc1ncnc(N)c1C#N)c1nc2ccc(F)cc2n1-c1cccc(C#N)c1.C[C@H](Nc1ncnc(N)c1C#N)c1nc2ccc(F)cc2n1-c1cccc(C#N)c1 | 0.0288
2 | C[C@@H](Nc1ncnc(N)c1C#N)c1nc2cccc(S(C)(=O)=O)c2n1C1CC1.C[C@H](Nc1ncnc(N)c1C#N)c1nc2cccc(S(C)(=O)=O)c2n1C1CC1 | 0.00376
3 | C[C@@H](Nc1ncnc(N)c1C#N)c1nc2ccc(F)cc2n1-c1cncc(NS(C)(=O)=O)c1.C[C@H](Nc1ncnc(N)c1C#N)c1nc2ccc(F)cc2n1-c1cncc(NS(C)(=O)=O)c1 | 0.0144
4 | C[C@@H](Nc1ncnc(N)c1C#N)c1nc2ccc(F)cc2n1-c1ccc(-c2cccnc2)nc1 | 1.19
5 | C[C@@H](Nc1ncnc(N)c1C#N)c1nc2ncccc2n1-c1ccccn1.C[C@H](Nc1ncnc(N)c1C#N)c1nc2ncccc2n1-c1ccccn1 | 2.9
6 | C[C@@H](Nc1ncnc(N)c1C#N)c1nc2ccc(F)cc2n1-c1cccc(F)n1.C[C@H](Nc1ncnc(N)c1C#N)c1nc2ccc(F)cc2n1-c1cccc(F)n1 | 0.0247
7 | C[C@H](Nc1ncnc(N)c1C#N)c1nc2ccc(F)cc2n1-c1ccc(-c2cccnc2)nc1 | 0.248
8 | CNC(=O)c1cccc(-n2c([C@@H](C)Nc3ncnc(N)c3C#N)nc3ccc(F)cc32)c1.CNC(=O)c1cccc(-n2c([C@H](C)Nc3ncnc(N)c3C#N)nc3ccc(F)cc32)c1 | 0.0306

Second part, the compound after the results:

Row | Ki [µM] | Compound
9 | 0.148 | C[C@@H](Nc1ncnc(N)c1C#N)c1nc2cc(F)ccc2n1-c1cncc(F)c1.C[C@H](Nc1ncnc(N)c1C#N)c1nc2cc(F)ccc2n1-c1cncc(F)c1
10 | 0.0461 | C[C@@H](Nc1ncnc(N)c1C#N)c1nc2ccc(F)cc2n1-c1cncc(Br)c1.C[C@H](Nc1ncnc(N)c1C#N)c1nc2ccc(F)cc2n1-c1cncc(Br)c1
11 | 0.177 | C[C@@H](Nc1ncnc(N)c1C#N)c1nc2cccc(C#N)c2n1-c1cncc(F)c1.C[C@H](Nc1ncnc(N)c1C#N)c1nc2cccc(C#N)c2n1-c1cncc(F)c1
12 | 0.0697 | C[C@@H](Nc1ncnc(N)c1C#N)c1nc2cccc(Br)c2n1-c1cncc(F)c1.C[C@H](Nc1ncnc(N)c1C#N)c1nc2cccc(Br)c2n1-c1cncc(F)c1
13 | 0.0222 | C[C@@H](Nc1ncnc(N)c1C#N)c1nc2c(F)cc(F)cc2n1-c1cccnc1.C[C@H](Nc1ncnc(N)c1C#N)c1nc2c(F)cc(F)cc2n1-c1cccnc1
14 | 0.0861 | C[C@@H](Nc1ncnc(N)c1C#N)c1nc2c(F)cccc2n1-c1cncc(F)c1.C[C@H](Nc1ncnc(N)c1C#N)c1nc2c(F)cccc2n1-c1cncc(F)c1
15 | 0.0901 | CNC(=O)c1cccc2nc([C@@H](C)Nc3ncnc(N)c3C#N)n(-c3cncc(F)c3)c12.CNC(=O)c1cccc2nc([C@H](C)Nc3ncnc(N)c3C#N)n(-c3cncc(F)c3)c12
